According to the supplement of paper PMC11208160:

Assay: recombinant barcode read abundance after kanamycin selection (control-corrected) (log10(CPM+1)); higher = more efficient recombination; sequences stand for … in AGTGCAGAGAAAATCGGCCAGTTTTCTCTGCCTGCAGTCCGCATGCCGT…AGATTTATGCAGCGGACTGCCTTTCTCCCAAAGTGATAAACCGGACAGTATCATGGACCGGTTTTCCCGGTAATCCGTATTTGCAAGGTTGGTTTCACT; site = the 11-nt target
Procedure, shortened: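 Reported as log10(CPM+1), each value stands for recombination efficiency. That efficiency is the averaged, control-corrected counts per million of barcodes found at recombinant junctions. Cells from a pooled E. coli library pairing targets with IS621 bridge RNA target-binding loops were plated twice on chloramphenicol/ampicillin LB agar (control) and twice on chloramphenicol/ampicillin/kanamycin with 0.1 mM IPTG.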
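Note: IS621 recombinase and bridge RNA in Escherichia coli cells.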

Row | Sequence | recombinant barcode read abundance (log10)
1 | TAGGCATCTTGGGTTCTAACCTGTTGCTC (site TAGTCATCTGA) | 0.115
2 | TAGGCCACTTGGGTTCTAACCTGTTGCTT (site TAGGCCACTAA) | 1.61
3 | TAGGCCACTTGGGTTCTAACCTGTTGCTT (site TAGGCCACTAC) | 1.17
4 | TAGGCCACTTGGGTTCTAACCTGTTGCTT (site TAGGCCACTAG) | 0.36
5 | TAGGCCACTTGGGTTCTAACCTGTTGCTT (site TAGGCCACTAT) | 0.539
6 | TAGGCGACTTGGGTTCTAACCTGTTGCCA (site ACCTTAGCTAA) | 0.119
7 | TAGGCGACTTGGGTTCTAACCTGTTGCCA (site TAGGCGACTTG) | 0.186
8 | TAGGCTACTTGGGTTCTAACCTGTTGCAG (site TAGGCTACTAT) | 0.206
9 | TAGGCTACTTGGGTTCTAACCTGTTGCAG (site TAGGCTACTCT) | 1.97
10 | TAGGCTACTTGGGTTCTAACCTGTTGCAG (site TAGGCTACTGT) | 0.0351
11 | TAGGCTACTTGGGTTCTAACCTGTTGCAG (site TAGGCTACTTT) | 0.216
12 | TAGGCTACTTGGGTTCTAACCTGTTGCAT (site TAGGCTACTAT) | 1.06
13 | TAGGCTACTTGGGTTCTAACCTGTTGCAT (site TAGGCTACTCT) | 0.301
14 | TAGGCTACTTGGGTTCTAACCTGTTGCAT (site TAGGCTACTGT) | 0.132
15 | TAGGCTACTTGGGTTCTAACCTGTTGCAT (site TAGGCTACTTT) | 0.00693
16 | TAGGGAGCTTGGGTTCTAACCTGTTGCAT (site TAGAGAGCTCT) | 0.0779
17 | TAGGGAGCTTGGGTTCTAACCTGTTGCAT (site TAGGGAGCTAT) | 2.8
18 | TAGGGCACTTGGGTTCTAACCTGTTGCCG (site TAGGGCACTCA) | 0.119
19 | TAGGGCACTTGGGTTCTAACCTGTTGCCG (site TAGGGCACTCG) | 1.58
20 | TAGGGCCCTTGGGTTCTAACCTGTTGCCT (site AAGGGCCCTAG) | 0.111
21 | TAGGGCCCTTGGGTTCTAACCTGTTGCCT (site CAGGGCCCTAG) | 0.0445
22 | TAGGGCCCTTGGGTTCTAACCTGTTGCCT (site GAGGGCCCTAG) | 0.0503

Row | Sequence | recombinant barcode read abundance (log10)
23 | TAGGGCCCTTGGGTTCTAACCTGTTGCCT (site TAGGGCCCTAG) | 1.15
24 | TAGGGTACTTGGGTTCTAACCTGTTGCGC (site ACAACCTCTCG) | 0.0219
25 | TAGGGTACTTGGGTTCTAACCTGTTGCGC (site TAGGGTACTGC) | 2.85
26 | TAGGTACCTTGGGTTCTAACCTGTTGCAT (site TAGGTACCTAT) | 1.98
27 | TAGGTACCTTGGGTTCTAACCTGTTGCAT (site TAGGTCCCTAT) | 0.223
28 | TAGGTACCTTGGGTTCTAACCTGTTGCAT (site TAGGTGCCTAT) | 0.0753
29 | TAGGTACCTTGGGTTCTAACCTGTTGCAT (site TAGGTTCCTAT) | 0.0968
30 | TAGGTCGCTTGGGTTCTAACCTGTTGCAT (site TAGATCGCTCT) | 0.171
31 | TAGGTCGCTTGGGTTCTAACCTGTTGCAT (site TAGGTCGCTAT) | 2.48
32 | TAGGTGACTTGGGTTCTAACCTGTTGCGG (site TAGGTGACTCC) | 2.13
33 | TAGGTGACTTGGGTTCTAACCTGTTGCGG (site TAGGTGCCTCC) | 0.285
34 | TAGGTGGCTTGGGTTCTAACCTGTTGCCT (site TAGGTGGCTAG) | 0.463
35 | TAGGTGGCTTGGGTTCTAACCTGTTGCCT (site TGGGCGGCTAG) | 0.105
36 | TAGGTGTCTTGGGTTCTAACCTGTTGCCT (site TAAGTGTCTAG) | 1.04
37 | TAGGTGTCTTGGGTTCTAACCTGTTGCCT (site TACGTGTCTAG) | 0.181
38 | TAGGTGTCTTGGGTTCTAACCTGTTGCCT (site TAGGTGTCTAG) | 1.33
39 | TAGGTGTCTTGGGTTCTAACCTGTTGCCT (site TATGTGTCTAG) | 0.0655
40 | TAGGTTCCTTGGGTTCTAACCTGTTGCCT (site TAGGTTCCTAG) | 0.348
41 | TAGGTTCCTTGGGTTCTAACCTGTTGCCT (site TCGGTTCCTAG) | 0.161
42 | TAGTACCCTTGGGTTCTAACCTGTTGCAC (site TAGTACCCTAT) | 0.169
43 | TAGTACCCTTGGGTTCTAACCTGTTGCAC (site TAGTACCCTCT) | 0.298
44 | TAGTACCCTTGGGTTCTAACCTGTTGCAC (site TAGTACCCTGT) | 1.28

Row | Sequence | recombinant barcode read abundance (log10)
45 | TAGTACCCTTGGGTTCTAACCTGTTGCAC (site TAGTACCCTTT) | 0.0304
46 | TAGTACCCTTGGGTTCTAACCTGTTGCAG (site TAGTACCCTAT) | 0.0395
47 | TAGTACCCTTGGGTTCTAACCTGTTGCAG (site TAGTACCCTCT) | 1.23
48 | TAGTACCCTTGGGTTCTAACCTGTTGCAG (site TAGTACCCTGT) | 0.152
49 | TAGTACCCTTGGGTTCTAACCTGTTGCAG (site TAGTACCCTTT) | 0.0625
50 | TAGTACCCTTGGGTTCTAACCTGTTGCTG (site TAGTAACCTAA) | 0.434
51 | TAGTACCCTTGGGTTCTAACCTGTTGCTG (site TAGTACCCTCA) | 1.92
52 | TAGTAGTCTTGGGTTCTAACCTGTTGCGT (site TAGTAGTCTAA) | 0.509
53 | TAGTAGTCTTGGGTTCTAACCTGTTGCGT (site TAGTAGTCTAC) | 2.79
54 | TAGTAGTCTTGGGTTCTAACCTGTTGCGT (site TAGTAGTCTAG) | 0.729
55 | TAGTAGTCTTGGGTTCTAACCTGTTGCGT (site TAGTAGTCTAT) | 2.34
56 | TAGTCATCTTGGGTTCTAACCTGTTGCTC (site TAGACATCTGA) | 0.0065
57 | TAGTCATCTTGGGTTCTAACCTGTTGCTC (site TAGCCATCTGA) | 0.252
58 | TAGTCATCTTGGGTTCTAACCTGTTGCTC (site TAGGCATCTGA) | 0.243
59 | TAGTCATCTTGGGTTCTAACCTGTTGCTC (site TAGTCATCTGA) | 1.41
60 | TAGTCCACTTGGGTTCTAACCTGTTGCGC (site CTCAAAGCTCG) | 0.0907
61 | TAGTCCACTTGGGTTCTAACCTGTTGCGC (site TAGTCCACTGC) | 1.98
62 | TAGTCCGCTTGGGTTCTAACCTGTTGCGG (site GAGTTCGCTCC) | 0.00991
63 | TAGTCCGCTTGGGTTCTAACCTGTTGCGG (site TAGTCCGCTCC) | 0.0626
64 | TAGTCCTCTTGGGTTCTAACCTGTTGCTT (site TAGTCCTCTAA) | 1.22
65 | TAGTCCTCTTGGGTTCTAACCTGTTGCTT (site TAGTCCTCTCA) | 0.173
66 | TAGTCCTCTTGGGTTCTAACCTGTTGCTT (site TAGTCCTCTGA) | 0.13

Row | Sequence | recombinant barcode read abundance (log10)
67 | TAGTCCTCTTGGGTTCTAACCTGTTGCTT (site TAGTCCTCTTA) | 0.0542
68 | TAGTCGACTTGGGTTCTAACCTGTTGCTT (site TAGACGACTAA) | 0.652
69 | TAGTCGACTTGGGTTCTAACCTGTTGCTT (site TAGCCGACTAA) | 0.307
70 | TAGTCGACTTGGGTTCTAACCTGTTGCTT (site TAGGCGACTAA) | 0.0688
71 | TAGTCGACTTGGGTTCTAACCTGTTGCTT (site TAGTCGACTAA) | 0.103
72 | TAGTCGTCTTGGGTTCTAACCTGTTGCCT (site TAGTCGTCTAA) | 0.238
73 | TAGTCGTCTTGGGTTCTAACCTGTTGCCT (site TAGTCGTCTAG) | 1.3
74 | TAGTCGTCTTGGGTTCTAACCTGTTGCTA (site TAGTCGTCTTA) | 0.505
75 | TAGTCGTCTTGGGTTCTAACCTGTTGCTA (site TATTTGTCTTA) | 0.438
76 | TAGTCTCCTTGGGTTCTAACCTGTTGCGT (site TAGTATCCTAC) | 0.227
77 | TAGTCTCCTTGGGTTCTAACCTGTTGCGT (site TAGTCTCCTAC) | 0.314
78 | TAGTCTCCTTGGGTTCTAACCTGTTGCGT (site TAGTGTCCTAC) | 0.0837
79 | TAGTCTCCTTGGGTTCTAACCTGTTGCGT (site TAGTTTCCTAC) | 0.135
80 | TAGTGAGCTTGGGTTCTAACCTGTTGCCG (site GCCCATCCTTA) | 0.065
81 | TAGTGAGCTTGGGTTCTAACCTGTTGCCG (site TAGTGAGCTCG) | 1.44
82 | TAGTGAGCTTGGGTTCTAACCTGTTGCCT (site TAGTGAGCTAG) | 1.37
83 | TAGTGAGCTTGGGTTCTAACCTGTTGCCT (site TCGTGAGCTAG) | 0.134
84 | TAGTGCTCTTGGGTTCTAACCTGTTGCCC (site TAGTGCTCTAG) | 0.675
85 | TAGTGCTCTTGGGTTCTAACCTGTTGCCC (site TAGTGCTCTCG) | 0.576
86 | TAGTGCTCTTGGGTTCTAACCTGTTGCCC (site TAGTGCTCTGG) | 1.37
